Reference: patent publication US7507727B2, “Substituted quinobenzoxazine analogs and methods of using thereof” (Cylene Pharmaceuticals, Inc., priority 2003, dated 2009)

What was measured:
[1] = system: c-myc quadruplex relative to pUC 18 plasmid DNA; assay: Quadruplex/duplex competitor assay (selectivity screen); format: binding; conditions: ratio of the competitor IC50 values; FIG. 3
Experimental: After cooling down to room temperature, 1 mM KCl and the test compound (various concentrations) were added and the mixture incubated for 15 minutes at room temperature. The primer extension was performed by adding 10 mM KCl and Taq DNA Polymerase (2.5 U/reaction, Promega) and incubating at 70° C. for […]. The reaction was stopped by adding 1 μl of the reaction mixture to 10 μl Hi-Di Formamide mixed and 0.25 μl LIZ120 size standard. Hi-Di Formamide and LIZ120 size standard were purchased from Applied Biosystems. The method is repeated with the addition of various concentrations of competitor nucleic acids at the first step, along with the primer and template sequences. The G-quadruplex binding ligand is added at the concentration previously established to produce a 1:1 ratio of stop-product to full-length product.
Quadruplex/Duplex Competitor Assay. The selectivity of compounds for the target quadruplex sequence relative to duplex DNA may be measured using a competition assay (i.e., “selectivity screen”). […] The degree to which each competitor successfully “soaks up” drug in solution is reflected by the quantitative decrease in synthesis of the stop product. In this manner, the relative binding affinities of drug to both the target quadruplex and duplex DNA are determined. […]

i-motif (IMOTIF99) = assay: Direct interaction assay; format: binding
Text: (§1) Direct Interaction Assay. Compounds may be evaluated for their ability to interact directly with nucleic acids capable of forming a quadruplex structure, wherein the nucleic acid is not a telomeric nucleic acid. The assay may be performed in the same or different vessels. For example, a compound may be contacted with each nucleic acid in the same vessel. Alternatively, a compound may be separately contacted with each of the nucleic acids tested in a different vessel. A telomeric nucleic acid as used herein represents a region of highly repetitive nucleic acid at the end of a chromosome. As used herein, a direct interaction is measured without the presence of a competitor nucleic acid.
(§2) An interaction between the compound and the nucleic acid may be determined for example, by measuring IC50 values, which are indicative of the binding and/or quadruplex stabilization. The selectivity of interactions may be determined, for example, by comparing measured IC50 values. For example, the-lowest IC50 values may be used to indicate a strong interaction between the compound and the nucleic acid, while highest IC50 values show a poor interaction; thus, showing selectivity of interaction. The reaction products were characterized by capillary electrophoresis.
(§3) Using a direct interaction assay, CX-3543 was screened for its ability to bind to and/or stabilize different types of quadruplexes. In this example, a 5′-fluorescent-labeled (FAM) primer (P45, 15 nM) is mixed with template DNA (15 nM) in a Tris-HCL buffer (15 mM Tris, pH 7.5) containing 10 mM MgCl2, 0.1 mM EDTA and 0.1 mM mixed deoxynucleotide triphosphates (dNTP's). The mixture is denatured at 95° C. for 5 minutes and, after cooling down to room temperature, is incubated at 37° C. for 15 minutes. After cooling down to room temperature, 1 mM KCl and the test compound at various concentrations are added, and the mixture incubated for 15 minutes at room temperature. The primer extension is performed by adding […] and Taq DNA Polymerase (2.5 U/reaction, Promega), and incubating at 70° C. for 20 minutes.

[2] = system: Hum Tel quadruplex (Humtel-95); assay: Direct interaction assay; format: binding
Text: as §1, §2, §3

SRC quadruplex (SRC89) = assay: Direct interaction assay; format: binding
Text: as §1, §2, §3

[3] = system: HMGA-2 quadruplex (HMGA-97); assay: Direct interaction assay; format: binding
Text: as §1, §2, §3

[4] = system: TGF-β quadruplex (TGFB3-81); assay: Direct interaction assay; format: binding
Text: as §1, §2, §3

[5] = system: H-RAS quadruplex (HRAS-85); assay: Direct interaction assay; format: binding
Text: as §1, §2, §3

[6] = system: BCl-2 quadruplex (BCL2-97); assay: Direct interaction assay; format: binding
Text: as §1, §2, §3

c-myc quadruplex (MYC99) = assay: Direct interaction assay; format: binding
Text: as §1, §2, §3

[7] = system: Escherichia coli (WP2-uvrA−); assay: Bacterial mutagenicity test (Ames assay); conditions: E. coli WP2-uvrA−, with and without S9
Experimental: The test article was dissolved in 5% dextrose.
The pH was then adjusted to 3.53.
94720. […] (ATCC numbers: 29629 and 49979, respectively).
Genotype tests were performed.
Both endpoints serve as toxicity indicators in this assay.

In the case of `CN1CCCC1CCNC(=O)c1cn2c3c(c(N4CCC(c5cnccn5)C4)c(F)cc3c1=O)Oc1cc3ccccc3cc1-2` (stereo not drawn) [CX-3543], the “selectivity for the c-myc quadruplex relative to pUC 18 plasmid DNA” value [1] is reported as “approximately 400 ×”, the interaction with quadruplex (i-motif (IMOTIF99); i-motif) is reported as “weakly” and the IC50 (i-motif (IMOTIF99); insert I-Motif) is reported as greater than 10 µM. The interaction with quadruplex ([2]; Hum Tel, chair-eller / basket quadruplex) was “less strongly”, the IC50 ([2]; insert HumTel) was 3.3 µM and the interaction with quadruplex (SRC quadruplex (SRC89); SRC, heptad-tetrad) was “weakly”. For the same compound, the IC50 (SRC quadruplex (SRC89); insert SRC) was greater than 10 µM, the interaction with quadruplex ([3]; HMGA-2, heptad-tetrad) was “weakly” and the IC50 ([3]; insert HMGA) was greater than 10 µM. For the same compound, the interaction with quadruplex ([4]; TGF-β, propeller quadruplex) was “strongly”, the IC50 ([4]; insert TGF-β) was 1.3 µM and the interaction with quadruplex ([5]; H-RAS, propeller quadruplex) was “strongly”. For the same compound, the IC50 ([5]; insert H-RAS) was 1.1 µM, the interaction with quadruplex ([6]; BCl-2, chair-eller / basket quadruplex) was “less strongly” and the IC50 ([6]; insert BCL-2) was 2 µM. For the same compound, the interaction with quadruplex (c-myc quadruplex (MYC99); c-myc, propeller quadruplex) was “strongly”, the IC50 (c-myc quadruplex (MYC99); insert c-MYC) was 0.6 µM and the “mutagenicity (reversion rates)” value [7] was “non-mutagenic”.
